In the supplement of paper PMC12463676, “Small-molecule dissolution of stress granules by redox modulation benefits ALS models” (Nature Chemical Biology, 2025):

How the values were obtained:
lipoamide = compound: NC(=O)CCCCC1CCSS1 [lipoamide]; assay: thermal stability z-score vs DMSO; higher = more thermally stabilized by treatment; conditions: HeLa, lipoamide concentration 100 µM
Protocol: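 Cellular thermal proteome profiling in HeLa cells. Cells were treated with 100 µM lipoamide for 1 h, with or without 1 mM arsenate for a further 1 h, then heated to ten temperatures (37-66.3 °C), and soluble protein was quantified by TMT mass spectrometry relative to 0.1% DMSO controls. The thermal stability score (sum of log2 fold changes minus the abundance score) was transformed to a z-score; mean of n = 3 experiments.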

potassium arsenate = compound: O=[As]([O-])(O)O.[K+] [potassium arsenate]; assay: as above; conditions: HeLa; arsenate concentration 1 mM
Protocol: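 Cellular thermal proteome profiling in HeLa cells treated with 1 mM arsenate for 1 h (DMSO pretreatment), heated to ten temperatures (37-66.3 °C). Soluble protein was quantified by TMT mass spectrometry relative to DMSO controls; the thermal stability score was transformed to a z-score; mean of n = 3 experiments.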

[1] = arsenate co-treatment: 1 mM arsenate 1 h
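Note: each temperature applied for 3 min, abundance score taken as mean log2 fold change at the two lowest temperatures, z-score obtained by mean subtraction and division by SD.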

Sequence of UniProt P33176 (P33176 whole entry): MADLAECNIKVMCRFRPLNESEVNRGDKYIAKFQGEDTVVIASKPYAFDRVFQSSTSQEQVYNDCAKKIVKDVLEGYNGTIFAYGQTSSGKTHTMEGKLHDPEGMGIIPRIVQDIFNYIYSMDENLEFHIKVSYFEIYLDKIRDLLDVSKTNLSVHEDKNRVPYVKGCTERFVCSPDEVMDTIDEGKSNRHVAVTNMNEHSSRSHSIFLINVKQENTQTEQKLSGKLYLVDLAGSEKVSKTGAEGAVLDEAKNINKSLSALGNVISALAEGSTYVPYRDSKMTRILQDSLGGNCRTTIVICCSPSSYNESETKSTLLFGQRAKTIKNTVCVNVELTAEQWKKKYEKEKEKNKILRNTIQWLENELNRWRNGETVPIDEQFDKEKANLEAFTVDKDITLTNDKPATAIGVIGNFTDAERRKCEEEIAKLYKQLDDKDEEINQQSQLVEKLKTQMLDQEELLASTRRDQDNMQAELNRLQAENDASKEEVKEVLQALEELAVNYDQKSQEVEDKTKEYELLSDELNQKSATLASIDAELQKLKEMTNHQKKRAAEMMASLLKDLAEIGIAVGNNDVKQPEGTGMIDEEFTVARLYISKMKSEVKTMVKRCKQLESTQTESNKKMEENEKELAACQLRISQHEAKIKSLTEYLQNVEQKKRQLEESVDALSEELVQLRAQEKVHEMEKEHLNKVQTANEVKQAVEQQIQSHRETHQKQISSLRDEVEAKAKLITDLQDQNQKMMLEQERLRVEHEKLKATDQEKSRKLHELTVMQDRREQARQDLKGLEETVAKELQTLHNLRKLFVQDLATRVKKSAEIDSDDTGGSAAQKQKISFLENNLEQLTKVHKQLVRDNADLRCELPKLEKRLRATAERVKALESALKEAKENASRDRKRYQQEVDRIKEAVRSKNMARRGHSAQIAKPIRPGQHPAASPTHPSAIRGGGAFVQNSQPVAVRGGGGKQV
Sequence of UniProt Q9H223 (Q9H223 whole entry): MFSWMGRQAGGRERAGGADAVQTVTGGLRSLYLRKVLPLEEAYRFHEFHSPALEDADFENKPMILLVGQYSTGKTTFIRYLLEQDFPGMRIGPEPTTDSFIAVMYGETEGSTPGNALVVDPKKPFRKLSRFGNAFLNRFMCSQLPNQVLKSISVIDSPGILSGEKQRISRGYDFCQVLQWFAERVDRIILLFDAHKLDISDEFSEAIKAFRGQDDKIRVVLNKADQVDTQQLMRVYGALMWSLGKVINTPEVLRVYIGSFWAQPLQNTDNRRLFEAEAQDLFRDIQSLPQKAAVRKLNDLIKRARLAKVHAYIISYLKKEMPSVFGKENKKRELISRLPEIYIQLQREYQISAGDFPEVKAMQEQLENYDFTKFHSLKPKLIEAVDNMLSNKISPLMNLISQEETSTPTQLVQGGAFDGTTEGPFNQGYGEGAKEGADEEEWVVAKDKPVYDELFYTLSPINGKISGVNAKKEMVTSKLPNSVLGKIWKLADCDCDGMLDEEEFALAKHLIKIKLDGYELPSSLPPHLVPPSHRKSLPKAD
Sequence of UniProt O00499 (O00499 whole entry): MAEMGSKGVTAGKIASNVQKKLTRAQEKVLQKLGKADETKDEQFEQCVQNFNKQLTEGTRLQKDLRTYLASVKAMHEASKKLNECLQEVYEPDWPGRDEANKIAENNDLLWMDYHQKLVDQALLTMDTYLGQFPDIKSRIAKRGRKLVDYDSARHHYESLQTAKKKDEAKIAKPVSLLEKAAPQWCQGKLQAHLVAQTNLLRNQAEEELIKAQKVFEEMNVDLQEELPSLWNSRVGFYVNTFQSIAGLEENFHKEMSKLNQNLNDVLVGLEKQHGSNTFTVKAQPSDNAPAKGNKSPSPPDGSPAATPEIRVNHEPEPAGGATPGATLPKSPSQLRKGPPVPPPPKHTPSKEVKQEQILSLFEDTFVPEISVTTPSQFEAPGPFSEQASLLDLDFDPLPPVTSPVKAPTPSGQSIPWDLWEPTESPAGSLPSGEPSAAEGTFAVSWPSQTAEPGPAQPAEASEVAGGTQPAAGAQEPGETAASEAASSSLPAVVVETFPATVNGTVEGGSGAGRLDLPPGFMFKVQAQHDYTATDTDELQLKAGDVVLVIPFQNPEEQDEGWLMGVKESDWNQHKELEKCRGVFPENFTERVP
Sequence of UniProt Q8IY95 (Q8IY95 whole entry): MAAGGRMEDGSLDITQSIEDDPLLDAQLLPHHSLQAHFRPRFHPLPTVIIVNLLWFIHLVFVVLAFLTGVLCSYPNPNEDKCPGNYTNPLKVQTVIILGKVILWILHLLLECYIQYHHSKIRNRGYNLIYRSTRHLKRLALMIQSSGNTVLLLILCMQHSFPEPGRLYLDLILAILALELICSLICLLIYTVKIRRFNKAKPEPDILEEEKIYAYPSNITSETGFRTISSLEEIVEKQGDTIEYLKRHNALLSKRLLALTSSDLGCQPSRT
Sequence of UniProt Q07820 (Q07820 whole entry): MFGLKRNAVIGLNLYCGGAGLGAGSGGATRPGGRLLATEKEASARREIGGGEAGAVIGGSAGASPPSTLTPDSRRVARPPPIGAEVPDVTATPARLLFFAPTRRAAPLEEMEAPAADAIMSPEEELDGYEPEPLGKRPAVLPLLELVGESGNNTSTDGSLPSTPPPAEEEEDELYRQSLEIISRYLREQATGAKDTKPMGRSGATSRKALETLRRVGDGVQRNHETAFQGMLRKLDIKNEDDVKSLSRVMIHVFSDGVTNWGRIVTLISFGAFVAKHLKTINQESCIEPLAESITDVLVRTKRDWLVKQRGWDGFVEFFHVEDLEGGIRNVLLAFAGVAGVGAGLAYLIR
Sequence of UniProt Q96A46 (Q96A46 whole entry): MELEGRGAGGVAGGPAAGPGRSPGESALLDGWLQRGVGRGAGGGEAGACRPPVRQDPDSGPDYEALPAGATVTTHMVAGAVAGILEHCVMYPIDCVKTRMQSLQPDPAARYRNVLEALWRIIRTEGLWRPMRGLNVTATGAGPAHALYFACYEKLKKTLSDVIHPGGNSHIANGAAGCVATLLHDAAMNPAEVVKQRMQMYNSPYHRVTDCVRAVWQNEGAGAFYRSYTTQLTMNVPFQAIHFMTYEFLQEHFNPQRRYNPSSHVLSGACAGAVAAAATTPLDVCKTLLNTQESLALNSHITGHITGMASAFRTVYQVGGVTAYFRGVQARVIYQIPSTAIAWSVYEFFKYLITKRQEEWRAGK
Sequence of UniProt Q9NRX5 (Q9NRX5 whole entry): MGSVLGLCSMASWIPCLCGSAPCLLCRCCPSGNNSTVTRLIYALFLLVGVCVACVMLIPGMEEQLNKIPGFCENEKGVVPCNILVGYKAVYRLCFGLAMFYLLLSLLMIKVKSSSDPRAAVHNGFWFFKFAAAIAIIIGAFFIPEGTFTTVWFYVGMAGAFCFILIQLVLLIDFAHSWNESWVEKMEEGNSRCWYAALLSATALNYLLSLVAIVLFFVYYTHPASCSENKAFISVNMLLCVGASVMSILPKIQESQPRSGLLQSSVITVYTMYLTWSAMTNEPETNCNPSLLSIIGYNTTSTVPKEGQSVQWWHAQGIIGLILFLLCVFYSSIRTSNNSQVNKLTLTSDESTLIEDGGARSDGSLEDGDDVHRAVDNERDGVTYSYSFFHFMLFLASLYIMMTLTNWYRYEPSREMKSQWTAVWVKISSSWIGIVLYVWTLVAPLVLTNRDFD
Sequence of UniProt Q641Q2 (Q641Q2 whole entry): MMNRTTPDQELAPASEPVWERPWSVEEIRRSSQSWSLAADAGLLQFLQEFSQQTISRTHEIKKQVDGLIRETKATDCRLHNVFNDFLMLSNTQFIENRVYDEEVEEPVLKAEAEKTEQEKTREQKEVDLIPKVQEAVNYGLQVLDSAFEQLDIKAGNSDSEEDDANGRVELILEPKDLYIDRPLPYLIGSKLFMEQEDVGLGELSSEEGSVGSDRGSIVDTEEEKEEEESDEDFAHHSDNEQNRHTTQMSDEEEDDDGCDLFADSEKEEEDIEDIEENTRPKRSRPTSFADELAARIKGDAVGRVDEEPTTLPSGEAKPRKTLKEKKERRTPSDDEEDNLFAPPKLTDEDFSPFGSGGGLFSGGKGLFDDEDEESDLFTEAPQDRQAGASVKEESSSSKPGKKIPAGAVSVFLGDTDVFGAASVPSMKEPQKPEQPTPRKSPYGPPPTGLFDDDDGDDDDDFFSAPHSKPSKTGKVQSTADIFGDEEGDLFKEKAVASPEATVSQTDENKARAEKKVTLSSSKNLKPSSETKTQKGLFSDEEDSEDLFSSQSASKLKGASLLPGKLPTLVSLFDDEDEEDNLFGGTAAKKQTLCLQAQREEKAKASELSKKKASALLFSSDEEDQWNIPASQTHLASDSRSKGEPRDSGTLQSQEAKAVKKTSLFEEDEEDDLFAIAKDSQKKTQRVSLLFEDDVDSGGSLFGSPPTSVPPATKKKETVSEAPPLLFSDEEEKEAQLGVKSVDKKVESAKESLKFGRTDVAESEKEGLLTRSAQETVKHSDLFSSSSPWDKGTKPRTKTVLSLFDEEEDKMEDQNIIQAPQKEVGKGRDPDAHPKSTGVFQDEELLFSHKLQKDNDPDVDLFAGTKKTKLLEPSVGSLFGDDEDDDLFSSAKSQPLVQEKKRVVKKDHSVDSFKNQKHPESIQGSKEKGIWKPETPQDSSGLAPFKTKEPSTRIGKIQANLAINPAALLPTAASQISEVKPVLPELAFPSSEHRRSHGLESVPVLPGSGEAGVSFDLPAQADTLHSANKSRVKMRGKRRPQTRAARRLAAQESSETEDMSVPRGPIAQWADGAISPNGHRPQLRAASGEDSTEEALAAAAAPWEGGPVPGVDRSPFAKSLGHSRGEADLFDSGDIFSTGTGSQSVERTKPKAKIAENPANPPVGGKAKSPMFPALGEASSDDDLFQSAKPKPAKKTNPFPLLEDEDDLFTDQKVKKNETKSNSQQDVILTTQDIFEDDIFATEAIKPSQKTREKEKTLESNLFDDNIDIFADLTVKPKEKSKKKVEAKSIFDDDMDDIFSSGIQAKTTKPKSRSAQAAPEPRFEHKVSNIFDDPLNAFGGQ
Sequence of UniProt O00483 (O00483 whole entry): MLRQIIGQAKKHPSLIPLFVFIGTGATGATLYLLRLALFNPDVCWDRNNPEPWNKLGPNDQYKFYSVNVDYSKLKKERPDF

Target	thermal stability z-score (lipoamide; [1])	thermal stability z-score (lipoamide; arsenate co-treatment: none)	thermal stability z-score (potassium arsenate)
UQCRC1 (UniProt P31930)	1.43	0.508	-1.38
HMGN2 (UniProt P05204)	1.04	0.752	0.0894
ZMAT2 (UniProt Q96NC0)	-0.00196	-0.398	-1.13
CTNNAL1 (UniProt Q9UBT7)	0.0967	0.168	0.675
PRPF40A (UniProt O75400)	-0.0187	0.00497	0.00775
ATP6AP1 (UniProt Q15904)	-0.952	-0.601	0.569
IFRD1 (UniProt O00458)	-0.177	-0.444	1.9
RBM42 (UniProt Q9BTD8)	0.952	0.152	-0.098
LAMA3 (UniProt Q16787)	0.341	-0.204	0.34
SLC25A46 (UniProt Q96AG3)	-0.105	0.322	0.109
POM121C (UniProt A8CG34)	1.24	-0.678	1.38
EHD4 (UniProt Q9H223)	0.435	0.326	-0.477
GAL (UniProt P22466)	0.135	-0.122	-0.0332
VAPB (UniProt O95292)	-0.055	0.415	-0.178
POLR1D	-0.0835	-0.377	-1.73
TRIM25 (UniProt Q14258)	-0.86	-0.867	-0.882
KCTD20 (UniProt Q7Z5Y7)	-0.132	-0.0693	-0.0752
LSM7 (UniProt Q9UK45)	0.466	0.456	-0.425
COG4 (UniProt Q9H9E3)	-0.919	-1.44	-0.419
CD276 (UniProt Q5ZPR3)	0.196	-0.174	0.000316
SERINC1 (UniProt Q9NRX5)	0.282	-0.488	0.329
SRPK1 (UniProt Q96SB4)	0.669	-0.433	0.291
TRABD2A (UniProt Q86V40)	-0.806	-1.21	0.517
SVIL (UniProt O95425)	0.00545	0.00211	0.279

Target	thermal stability z-score (lipoamide; [1])	thermal stability z-score (lipoamide; arsenate co-treatment: none)	thermal stability z-score (potassium arsenate)
SUMF2 (UniProt Q8NBJ7)	-3.47	-2.99	0.544
SLC25A28 (UniProt Q96A46)	0.65	0.529	1.81
NDUFA4 (UniProt O00483)	0.551	0.887	0.532
ARIH2 (UniProt O95376)	0.203	-0.216	-0.521
UCHL5 (UniProt Q9Y5K5)	0.0058	0.138	0.855
NSMCE4A (UniProt Q9NXX6)	-0.245	-0.35	-0.055
APLP2 (UniProt Q06481)	-2.13	-1.76	-0.251
FIBP (UniProt O43427)	0.453	0.0779	0.125
MSI2 (UniProt Q96DH6)	0.43	0.136	0.082
RICTOR (UniProt Q6R327)	-1.23	-0.161	0.166
GLA (UniProt P06280)	-1.1	-0.822	0.421
PDE4D (UniProt Q08499)	0.651	0.623	0.101
FAM21A (UniProt Q641Q2)	0.0165	-0.365	0.352
NUCKS1 (UniProt Q9H1E3)	0.697	0.845	0.5
WDR7 (UniProt Q9Y4E6)	-0.338	0.149	-0.351
PARL (UniProt Q9H300)	-0.134	-0.733	0.57
KDM1A (UniProt O60341)	1.9	2.21	-1.3
CCDC93 (UniProt Q567U6)	-0.728	-0.078	0.0272
ADH5 (UniProt P11766)	1.89	0.761	-1.99
AK6 (UniProt Q9Y3D8)	-0.665	-0.877	-2.09
TRAPPC13 (UniProt A5PLN9)	0.252	-0.0347	-0.371
MCL1 (UniProt Q07820)	0.483	0.838	1.27
RNF214 (UniProt Q8ND24)	-0.0786	-0.0159	-0.33
OSBP2 (UniProt Q969R2)	0.192	0.026	-0.124

Target	thermal stability z-score (lipoamide; [1])	thermal stability z-score (lipoamide; arsenate co-treatment: none)	thermal stability z-score (potassium arsenate)
RPL4 (UniProt P36578)	0.486	0.0127	-0.66
TMEM192 (UniProt Q8IY95)	-0.861	0.064	-0.137
GSDMD (UniProt P57764)	0.143	0.362	-0.198
PSMD3 (UniProt O43242)	0.084	0.0492	0.115
BIN1 (UniProt O00499)	-0.407	-0.803	0.183
AP2B1 (UniProt P63010)	-0.153	-0.596	-0.216
DPY19L1 (UniProt Q2PZI1)	-0.0328	-0.259	-0.259
YOD1 (UniProt Q5VVQ6)	-0.00898	-0.121	0.0186
PRKCDBP (UniProt Q969G5)	1.06	-0.0261	0.331
DBNL (UniProt Q9UJU6)	0.473	0.208	0.99
DNAJC10 (UniProt Q8IXB1)	-3.47	-2.86	-0.253
ZC3H4 (UniProt Q9UPT8)	0.112	-0.278	-1.7
KIF5B (UniProt P33176)	0.397	0.256	1.17
ERI1 (UniProt Q8IV48)	0.0943	0.343	-1.14
GNB2 (UniProt P62879)	0.297	1.21	-0.44
LRRC47 (UniProt Q8N1G4)	0.175	0.38	1.06
C11ORF31|SELH	0.115	0.162	-0.153
ITPA (UniProt Q9BY32)	0.939	0.734	0.199
GPX8 (UniProt Q8TED1)	-4.37	-5.4	0.394
GCLC (UniProt P48506)	0.874	0.402	1.56
ERCC4 (UniProt Q92889)	-0.252	0.00197	-0.123
NCAPD2 (UniProt Q15021)	-0.565	-0.251	0.369
ATAD3A (UniProt Q9NVI7)	-0.137	0.337	0.401
